Source: patent publication US11673866B2, “Estrogen receptor beta ligands for the prevention and treatment of multiple sclerosis (MS) and other demyelinating, inflammatory and neurodegenerative diseases” (The Board of Trustees of the University of Illinois, priority 2018, dated 2023)
“Also recorded” adds a separate entry of the source.

Tests used:
[1] = system: CXCL1; assay: CXCL1 staining in thoracic ventral column white matter of EAE mice; format: in vivo, mouse; set-up: key to CNS Chemokines: CXCL1: ‘+’ indicate marker was significantly (p ≤ 0.05) increased in treatment group relative to vehicle; ‘−’ indicates marker was significantly (p ≤ 0.05) decreased in treatment group relative to vehicle; ○: ‘o’ indicate marker did not change relative to vehicle; conditions: vs vehicle; for CXCL1 staining intensity, thoracic ventral column: therapeutic treatment (postEAE)
Source text: Immunohistochemistry: Before histological staining, 40-μm free floating sections were thoroughly washed with PBS to remove residual sodium azide (Crawford et al., 2010). Sections were permeabilized with 0.3% Triton X-100 in ix PBS and 15% normal goat serum (NGS). Myelination, gliosis and immune markers were visualized by the following primary antibodies at a concentration of 1:500 unless otherwise noted: chicken anti-myelin basic protein (MBP; polyclonal, EMD Millipore, Darmstadt, Germany), chicken anti-glial fibrillary acidic protein (GFAP; EMD Millipore, Darmstadt), rat anti-cluster of differentiation 45 (CD45; clone 30-F11, BD Biosciences, San Diego, Calif.), mouse anti-ionized calcium-binding adapter molecule 1/allograft inflammatory factor-1 (Iba1/AIF1; clone 20A12.1, EMD Millipore, Darmstadt, Germany), goat anti-CXCL1 (R&D systems; Minneapolis, Minn.) at 1:250 and mouse anti-adenomatous polyposis coli (CC-1; clone CC-1, Genetex, Irvine, Calif.). Secondary staining was performed using polyclonal fluorophore-conjugated antibodies from ThermoFisher Scientific at a concentration of 1:500 unless otherwise specified: goat anti-chicken Alexa Fluor® 555 (AF555), goat anti-rabbit Alexa Fluor® 647 (AF647), donkey anti-chicken IgY Cy3 (EMD Millipore), goat anti-rat IgG AF647, goat anti-rabbit IgG Cy3 (EMD Millipore), goat anti-mouse IgG2b AF647 and rabbit anti-goat AF647. Nuclei were counter stained with 4′,6-Diamidino-2-phenylindole (DAPI, 2 ng/ml; Molecular Probes) for 10 minutes after incubation with secondary antibodies, and sections were mounted on glass slides, allowed to dry, and coverslipped with Fluoromount G mounting medium (Thermo Fisher Scientific) for imaging.
Confocal Microscopy: Thoracic spinal cord dorsal and ventral column sections, as well as CC were imaged using an Olympus BX61 confocal microscope (Olympus America Inc., Center Valley, Pa.) using a 10× and 40× objective. Z-stack projections were compiled using SlideBook 6 software (Intelligent Imaging Innovations, Inc., Denver, Colo.). Immunostaining was quantified using unbiased stereology (Crawford et al., 2010). All images (RGB) were Confocal converted to grayscale, split, and separated by color channel using imageJ version 2.2.0-rc-46/1.50 g (NIH). To avoid experimenter bias, auto-adjustment of brightness and contrast, as well as threshold of staining signal, was carried out by ImageJ. MBP^+, GFAP^+, CD45^+, Iba1^+, CC1^+, and CXCL1^+, staining intensity was measured as percent area of positive immunoreactivity within the region of interest and intensity of signal determined by ImageJ.
Under inflammatory conditions, such as those generated by MS, astrocytes undergo NF-κB-dependent upregulation of CXCL1, which is thought to recruit OPCs to the site of demyelinating injury (Omari et al., 2006; Xue et al., 2014). Thus, having observed that IndCl raised its production by peripheral leukocytes, CXCL1 expression in thoracic ventral column white matter was next evaluated.

[2] = system: primary oligodendrocyte and oligodendrocyte precursor cells (OL/OPCs); assay: Primary OPC culture differentiation (MBP immunostaining, DAPI); format: cell-based, mouse; conditions: for number of MBP+ OLs (differentiated OLs) / branched OLs / complex branching cells: 10 nM, vs vehicle-treated cells; for number of MBP+ OLs (differentiated OLs): 3 days in differentiating media
Method: Primary OPC Cultures: Primary OPCs, isolated from postnatal day P1 C57BL/6 male and female mouse cortices as described previously, were treated with 10 nM ligands in differentiating medium for 3 days (Tiwari-Woodruff et al., 2001; Tiwari-Woodruff et al., 2006). Primary OPC were cultured into 8-well chamber slides (three wells per condition, 2.5×10^5 cells/well) for three days to attach and […] in differentiating media (consisting of DMEM-F12 with triiodothyronine- and thyroxine-containing Sato as well as penicillin, streptomycin, insulin, N-acetyl-L-cysteine, forskolin, ciliary neurotrophic factor, neurotrophin-3, and platelet-derived growth factor receptor α (Tiwari-Woodruff et al., 2001)). A positive control (IndCl), a negative control (Vehicle consisting of the media+EtOH mixture used to dissolve IndCl), and a normal control (differentiating media alone) were used for comparison. At the end of the treatment period, cells were fixed, stained by immunocytochemistry (primary antibody polyclonal chicken myelin basic protein (MBP, Millipore AB9348), shown in green and co-stained with nuclear stain—DAPI shown in blue), and imaged with an Olympus BX61 confocal microscope (Olympus America Inc., Center Valley, Pa.) at 10× magnification (3 images per well). Cells were counted using the ImageJ multipoint tool, and counts were then divided by the image area (mm^2). Average cell density for each condition was then divided by the normal condition cell density. Analysis of OL differentiation consisted of counting the number of MBP+ cells and process extensions that were longer than the respective cell-body diameter and tracking the number of highly branched MBP+ cells (with three or more processes) (Monnerie et al., 2017). Statistics were performed using GraphPad Prism 6 Software (La Jolla, Calif.). One-way ANOVA with Tukey's posthoc test for multiple comparisons was used to generate p-values, and data are presented as mean SEM (with α≤0.05).
Primary OPC cultures were used as a convenient cell-based assay to characterize the proliferation and/or differentiation effects of the new IndCl analogues and to select those most suitable for more extensive studies to be done in comparison with the parental ligand, IndCl. 48 hours after plating OPCs, one of seven IndCl analogues (FIG. 1A) was added to differentiating media at a concentration of 10 nM (De Angelis et al., 2005; Saijo et al., 2011). OPCs were allowed to differentiate for 3 days in the presence of IndCl or analogues, at which point they were fixed, immunostained for OPC/OL markers, and quantified. […] The total number of cells in culture was not altered by any treatment (FIGS. 1B and 1D).

[3] = Post (therapeutic, postEAE) treatment of EAE mice

## C[C@]12CC[C@@H]3c4ccc(O)cc4CC[C@H]3[C@@H]1CC[C@@H]2O [E2, 170 estradiol]
[1]; [3]
  CNS Chemokines: CXCL1: +
[1]; Pre (prophylactic, preEAE) E2 treatment of EAE mice
  CNS Chemokines: CXCL1: ○

## Oc1ccc(-n2nc3ccc(O)cc3c2Cl)cc1 [IndCl, chloroindazole]
[2]
  number of MBP+ OLs (differentiated OLs): significantly increased
[1]; [3]
  CNS Chemokines: CXCL1: +
[1]
  CXCL1 staining intensity, thoracic ventral column: significant increase; also recorded: significantly increased

## Cc1cc(O)ccc1-n1nc2ccc(O)cc2c1Cl [IndCl-o-Me, 3-chloro-2-(4-hydroxy-2-methylphenyl)-2H-indazol-5-ol]
[2]
  number of MBP+ OLs (differentiated OLs): significant increase; also recorded: significantly increased
  branched OLs / complex branching cells: increase in the percentage of branched OLs
[2]; FIG. 10B
  MBP+/DAPI ratio (OPC differentiation): greatest increase
[1]; [3]
  CNS Chemokines: CXCL1: +
[1]
  CXCL1 staining intensity, thoracic ventral column: significant increase; also recorded: significantly increased

## Oc1ccc(-n2nc3ccc(O)cc3c2Cl)c(Cl)c1 [IndCl-o-Cl, 3-chloro-2-(2-chloro-4-hydroxyphenyl)-2H-indazol-5-ol]
[2]
  number of MBP+ OLs (differentiated OLs): significant increase; also recorded: significantly increased
  branched OLs / complex branching cells: increase in the percentage of branched OLs
[1]; [3]
  CNS Chemokines: CXCL1: +
[1]
  CXCL1 staining intensity, thoracic ventral column: significant increase; also recorded: significantly increased
